Values quoted from earlier work, collected in patent US20260193295A1, “CILAGICIN COMPOUNDS AND METHODS OF USE THEREOF” (priority 2022, published 2026).
≈ marks a conversion by molar mass, not a printed value. Like-named read-outs stand apart in the source and are kept apart here.

Test system: vancomycin-resistant Enterococci clinical isolates
Conditions: cited from earlier work
[1] = Enterococci clinical isolate code 781
[2] = Enterococci clinical isolate code 782
[3] = Enterococci clinical isolate code 783
[4] = Enterococci clinical isolate code 784
[5] = Enterococci clinical isolate code 785
[6] = Enterococci clinical isolate code 786
[7] = Enterococci clinical isolate code 787
[8] = Enterococci clinical isolate code 788
[9] = Enterococci clinical isolate code 789
[10] = Enterococci clinical isolate code 790
[11] = Enterococci clinical isolate code 791
[12] = Enterococci clinical isolate code 792
[13] = Enterococci clinical isolate code 793
[14] = Enterococci clinical isolate code 794
[15] = Enterococci clinical isolate code 795
[16] = Enterococci clinical isolate code 796
[17] = Enterococci clinical isolate code 797
[18] = Enterococci clinical isolate code 798
[19] = Enterococci clinical isolate code 799
[20] = Enterococci clinical isolate code 800
[21] = Enterococci clinical isolate code 801
[22] = Enterococci clinical isolate code 802
[23] = Enterococci clinical isolate code 803
[24] = Enterococci clinical isolate code 804
[25] = Enterococci clinical isolate code 805
[26] = Enterococci clinical isolate code 806
[27] = Enterococci clinical isolate code 807
[28] = Enterococci clinical isolate code 808
[29] = Enterococci clinical isolate code 809
[30] = Enterococci clinical isolate code 810

| Compound | MIC [1] | MIC [2] | MIC [3] | MIC [4] | MIC [5] | MIC [6] | MIC [7] | MIC [8] | MIC [9] | MIC [10] | MIC [11] | MIC [12] | MIC [13] | MIC [14] | MIC [15] | MIC [16] | MIC [17] | MIC [18] | MIC [19] | MIC [20] | also measured |
| --- | --- | --- | --- | --- | --- | --- | --- | --- | --- | --- | --- | --- | --- | --- | --- | --- | --- | --- | --- | --- | --- |
| CC(=O)NC[C@H]1CN(c2ccc(N3CCOCC3)c(F)c2)C(=O)O1 [Linezolid] | 2 µg/mL (≈ 5.93 µM) | 2 µg/mL (≈ 5.93 µM) | 2 µg/mL (≈ 5.93 µM) | 1 µg/mL (≈ 2.96 µM) | 2 µg/mL (≈ 5.93 µM) | 2 µg/mL (≈ 5.93 µM) | 2 µg/mL (≈ 5.93 µM) | 4 µg/mL (≈ 11.9 µM) | 2 µg/mL (≈ 5.93 µM) | 2 µg/mL (≈ 5.93 µM) | 2 µg/mL (≈ 5.93 µM) | 1 µg/mL (≈ 2.96 µM) | 2 µg/mL (≈ 5.93 µM) | 2 µg/mL (≈ 5.93 µM) | 1 µg/mL (≈ 2.96 µM) | 2 µg/mL (≈ 5.93 µM) | 2 µg/mL (≈ 5.93 µM) | 4 µg/mL (≈ 11.9 µM) | 2 µg/mL (≈ 5.93 µM) | 2 µg/mL (≈ 5.93 µM) | MIC [21]: 2 µg/mL (≈ 5.93 µM); MIC [22]: 2 µg/mL (≈ 5.93 µM); MIC [23]: 4 µg/mL (≈ 11.9 µM); MIC [24]: 2 µg/mL (≈ 5.93 µM); MIC [25]: 2 µg/mL (≈ 5.93 µM); MIC [26]: 2 µg/mL (≈ 5.93 µM); MIC [27]: 2 µg/mL (≈ 5.93 µM); MIC [28]: 4 µg/mL (≈ 11.9 µM); MIC [29]: 2 µg/mL (≈ 5.93 µM); MIC [30]: 2 µg/mL (≈ 5.93 µM) |
| CCCCCCCCCC(=O)N[C@@H](Cc1c[nH]c2ccccc12)C(=O)N[C@H](CC(N)=O)C(=O)N[C@@H](CC(=O)O)C(=O)N[C@@H]1C(=O)NCC(=O)N[C@@H](CCCN)C(=O)N[C@@H](CC(=O)O)C(=O)N[C@H](C)C(=O)N[C@@H](CC(=O)O)C(=O)NCC(=O)N[C@H](CO)C(=O)N[C@@H]([C@H](C)CC(=O)O)C(=O)N[C@@H](CC(=O)c2ccccc2N)C(=O)O[C@@H]1C [Daptomycin] | 4 µg/mL (≈ 2.47 µM) | 2 µg/mL (≈ 1.23 µM) | 4 µg/mL (≈ 2.47 µM) | 4 µg/mL (≈ 2.47 µM) | 2 µg/mL (≈ 1.23 µM) | 0.5 µg/mL (≈ 0.309 µM) | 8 µg/mL (≈ 4.94 µM) | 1 µg/mL (≈ 0.617 µM) | 8 µg/mL (≈ 4.94 µM) | 4 µg/mL (≈ 2.47 µM) | 1 µg/mL (≈ 0.617 µM) | 4 µg/mL (≈ 2.47 µM) | 4 µg/mL (≈ 2.47 µM) | 4 µg/mL (≈ 2.47 µM) | 1 µg/mL (≈ 0.617 µM) | 2 µg/mL (≈ 1.23 µM) | 1 µg/mL (≈ 0.617 µM) | 1 µg/mL (≈ 0.617 µM) | 2 µg/mL (≈ 1.23 µM) | 2 µg/mL (≈ 1.23 µM) | MIC [21]: 2 µg/mL (≈ 1.23 µM); MIC [22]: 4 µg/mL (≈ 2.47 µM); MIC [23]: 4 µg/mL (≈ 2.47 µM); MIC [24]: 1 µg/mL (≈ 0.617 µM); MIC [25]: 2 µg/mL (≈ 1.23 µM); MIC [26]: 4 µg/mL (≈ 2.47 µM); MIC [27]: 4 µg/mL (≈ 2.47 µM); MIC [28]: 4 µg/mL (≈ 2.47 µM); MIC [29]: 4 µg/mL (≈ 2.47 µM); MIC [30]: 4 µg/mL (≈ 2.47 µM) |
| [H]/N=C(/N)N[C@H]1[C@H](O)[C@@H](O)[C@H](O[C@@H]2O[C@@H](C)[C@](O)(C=O)[C@H]2O[C@@H]2O[C@@H](CO)[C@H](O)[C@@H](O)[C@@H]2NC)[C@@H](N/C(N)=N\[H])[C@@H]1O [Streptomycin] | ≤1000 µg/mL | >1000 µg/mL | >1000 µg/mL | ≤1000 µg/mL | >1000 µg/mL | ≤1000 µg/mL | >1000 µg/mL | ≤1000 µg/mL | >1000 µg/mL | >1000 µg/mL | ≤1000 µg/mL | ≤1000 µg/mL | ≤1000 µg/mL | >1000 µg/mL | >1000 µg/mL | ≤1000 µg/mL | ≤1000 µg/mL | ≤1000 µg/mL | >1000 µg/mL | ≤1000 µg/mL | MIC [21]: ≤1000 µg/mL; MIC [22]: >1000 µg/mL; MIC [23]: >1000 µg/mL; MIC [24]: >1000 µg/mL; MIC [25]: ≤1000 µg/mL; MIC [26]: ≤1000 µg/mL; MIC [27]: >1000 µg/mL; MIC [28]: ≤1000 µg/mL; MIC [29]: >1000 µg/mL; MIC [30]: >1000 µg/mL |
| O=C(N[C@H](CO)[C@H](O)c1ccc([N+](=O)[O-])cc1)C(Cl)Cl [Chloramphenicol] | 8 µg/mL (≈ 24.8 µM) | >32 µg/mL | 16 µg/mL (≈ 49.5 µM) | 4 µg/mL (≈ 12.4 µM) | >32 µg/mL | 16 µg/mL (≈ 49.5 µM) | 32 µg/mL (≈ 99 µM) | 8 µg/mL (≈ 24.8 µM) | 16 µg/mL (≈ 49.5 µM) | 8 µg/mL (≈ 24.8 µM) | 8 µg/mL (≈ 24.8 µM) | 4 µg/mL (≈ 12.4 µM) | 8 µg/mL (≈ 24.8 µM) | 8 µg/mL (≈ 24.8 µM) | 32 µg/mL (≈ 99 µM) | 8 µg/mL (≈ 24.8 µM) | 8 µg/mL (≈ 24.8 µM) | 16 µg/mL (≈ 49.5 µM) | >32 µg/mL | 16 µg/mL (≈ 49.5 µM) | MIC [21]: 8 µg/mL (≈ 24.8 µM); MIC [22]: 8 µg/mL (≈ 24.8 µM); MIC [23]: 8 µg/mL (≈ 24.8 µM); MIC [24]: >32 µg/mL; MIC [25]: 8 µg/mL (≈ 24.8 µM); MIC [26]: 8 µg/mL (≈ 24.8 µM); MIC [27]: 32 µg/mL (≈ 99 µM); MIC [28]: 8 µg/mL (≈ 24.8 µM); MIC [29]: 8 µg/mL (≈ 24.8 µM); MIC [30]: 8 µg/mL (≈ 24.8 µM) |
| Gentamicin | ≤500 µg/mL | >500 µg/mL | >500 µg/mL | ≤500 µg/mL | >500 µg/mL | >500 µg/mL | ≤500 µg/mL | ≤500 µg/mL | >500 µg/mL | ≤500 µg/mL | ≤500 µg/mL | >500 µg/mL | ≤500 µg/mL | >500 µg/mL | >500 µg/mL | ≤500 µg/mL | ≤500 µg/mL | ≤500 µg/mL | >500 µg/mL | >500 µg/mL | MIC [21]: >500 µg/mL; MIC [22]: >500 µg/mL; MIC [23]: >500 µg/mL; MIC [24]: >500 µg/mL; MIC [25]: ≤500 µg/mL; MIC [26]: ≤500 µg/mL; MIC [27]: ≤500 µg/mL; MIC [28]: ≤500 µg/mL; MIC [29]: ≤500 µg/mL; MIC [30]: ≤500 µg/mL |
| Teicoplanin | >64 µg/mL | 0.5 µg/mL | 2 µg/mL | 0.5 µg/mL | 0.5 µg/mL | 0.25 µg/mL | >64 µg/mL | 1 µg/mL | >64 µg/mL | 1 µg/mL | 0.5 µg/mL | 1 µg/mL | 0.5 µg/mL | 64 µg/mL | 0.5 µg/mL | 1 µg/mL | 1 µg/mL | 1 µg/mL | 0.5 µg/mL | 0.5 µg/mL | MIC [21]: 1 µg/mL; MIC [22]: 64 µg/mL; MIC [23]: >64 µg/mL; MIC [24]: 0.5 µg/mL; MIC [25]: 0.5 µg/mL; MIC [26]: 1 µg/mL; MIC [27]: 1 µg/mL; MIC [28]: 0.5 µg/mL; MIC [29]: 64 µg/mL; MIC [30]: 0.5 µg/mL |
